Values of other authors, collected in patent publication US9283189B2, “Sustained-release preparation of ivabradine or pharmaceutically acceptable salts thereof” (Jiangsu Hengrui Medicine Co., Ltd., priority 2011, dated 2016).

Assays:
[1] = system: chronic stable angina

COc1cc2c(cc1OC)CC(=O)N(CCCN(C)CC1Cc3cc(OC)c(OC)cc31)CC2 (centres unmarked) [Ivabradine]
Average plasma concentration at steady state (5 mg twice daily, CV=38%): 10 ng/mL
Main half-life in plasma (70˜75% of the AUC): 2 h
Maximum plasma concentration (chronic administration, 5 mg twice daily, CV=29%): 22 ng/mL
Volume of distribution at steady state (in patients): ~100 L
Effective half-life (in vivo): 11 h
Plasma protein bound (in vivo): approximately 70%
Renal clearance (in vivo): approximately 70 ml/min
Total clearance (in vivo): about 400 ml/min
Oral dose excreted unmetabolized in urine (in vivo, po): About 4%
Time to peak plasma level (oral administration, fasting condition): about 1 hour
Kinetics (dose proportionality) (oral dose range of 0.5 mg˜24 mg): linear
Angina attacks ([1]; 5 mg and 7.5 mg twice daily, patients with chronic stable angina): significant decrease
Influence on glucose or lipid metabolism ([1]; human, in vivo): no influence
Rebound effect following the withdrawal of treatment ([1]; human, in vivo): no rebound effect
